Substitutions are numbered along the chain they refer to. Values joined by “and” are separate entries in the source; they are usually repeats but may differ in a detail not shown here. Identical values can stand only once. “Also recorded” adds a separate entry of the source.
Columns and labels:
His-MMACHC-R161Q [1] = target: T1, His-MMACHC-R161Q (Homo sapiens, UniProt Q9Y4U1, R161Q); test: UV-visible absorption spectra, base-on/base-off binding; conditions: 20 μM CNCbl, pH 7.0
T1 construct: made in house; host or cells: E. coli BL21 DE3
T1 sequence (Q9Y4U1 1-282 R161Q): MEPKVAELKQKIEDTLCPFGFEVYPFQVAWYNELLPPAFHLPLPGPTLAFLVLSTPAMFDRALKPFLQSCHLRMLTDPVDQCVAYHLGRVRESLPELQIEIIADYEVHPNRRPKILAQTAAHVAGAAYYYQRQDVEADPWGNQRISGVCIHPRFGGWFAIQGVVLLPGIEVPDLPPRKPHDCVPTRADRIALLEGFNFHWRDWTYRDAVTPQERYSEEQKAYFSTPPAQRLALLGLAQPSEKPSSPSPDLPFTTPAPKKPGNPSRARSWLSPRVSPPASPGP

His-MMACHC-R161Q [2] = target: T1, His-MMACHC-R161Q; test: as above; conditions: 5 μM cobalamin, 50 μM protein, pH 7.0
Procedure: […] In order to retain the high amounts of protein necessary for these experiments, the His-tag (wt and R161Q) or GST-tag (wt protein) was left on. Absorption spectrum measurements were carried out using a MOS-250 spectrometer and recorded using Bio-Kine 32 v4.20 software.
(§1) In order to determine whether the R161Q mutation interferes with the ability of MMACHC to support this transition, we examined the UV–visible absorption spectra for the proteins bound to AdoCbl, as an example of an alkylcobalamin, as well as for the proteins bound to CNCbl and OHCbl. Each cobalamin was added at a concentration of […] (Fig. 5). To determine whether the cobalamin was base-on or base-off, in the case of CNCbl both base-on and base-off spectra were determined for the free vitamin, as previously reported [[12,14]]. […] Confirming our earlier data, GST-tagged MMACHC-wt bound CNCbl in the base-off state (Table 2). […] Both MMACHC-wt and MMACHC-R161Q bound AdoCbl in the base-off state (Fig. 5; Table 2). […] Finally, neither MMACHC-wt nor MMACHC-R161Q modified OHCbl binding, which retained the base-on profile regardless of the MMACHC species present (Fig. 5; Table 2).

MMACHC-R161Q [3] = target: T2, MMACHC-R161Q (Homo sapiens, UniProt Q9Y4U1, R161Q); parameters: method as in PMID 19700356; conditions: cited from earlier work
T2 construct: His-tag (N, cleaved yes); made in house; host or cells: E. coli BL21 DE3
T2 sequence (Q9Y4U1 1-282 R161Q): T1 sequence (Q9Y4U1 1-282 R161Q)

GST-MMACHC-wt [4] = target: T3, GST-MMACHC-wt (Homo sapiens, UniProt Q9Y4U1); parameters: method as in PMID 19700356; conditions: earlier demonstration; cited from earlier work
T3 construct: made in house
T3 sequence (Q9Y4U1 1-282): T1 sequence (Q9Y4U1 1-282 R161Q) with Q161R

MMACHC-R161Q [5] = target: T2, MMACHC-R161Q; test: Differential scanning fluorimetry (DSF), stabilization by cobalamins; type: binding; conditions: Tm at 50 μM ligand minus Tm at 0 μM ligand; DSF
Procedure: (§2) DSF was performed and analyzed as described in Niesen et al., with minor modifications. Purified MMACHC proteins were diluted to 0.1 mg/ml (3 μM) in buffer (10 mM HEPES pH 7.5, 0.5 M NaCl, 5% glycerol) with 1:1000 Sypro Orange (Invitrogen) and run in triplicate. The proteins were heated from 5 to 75 °C with a ramp rate of 1 °C/min in a thermocycler (Bio-rad C1000 Thermocycler, CFX96 Real-time system). All graphs were normalized so that minimum fluorescence was set to 0 and maximum fluorescence set to 1. […] Final graphs and AC50’s were generated using Kadeidagraph 4.0 software (Synergy Software, Reading, PA). AC50’s were determined by fitting the ΔTm vs. ligand concentration curves to the equation ΔTm = ΔTm max[S]/(AC50 + [S]) where ΔTm is the change in melting temperature (Tm[protein + ligand] − Tm[protein]), ΔTm max is the maximal change in Tm at saturating (50 μM) ligand concentration and [S] is the ligand concentration.
(§3) Wild-type (MMACHC-wt) and mutant (MMACHC-R161Q) MMACHC were expressed and purified to >95% purity, with His-tag removed, as judged by SDS–PAGE (Fig. 2A). In order to investigate the thermostability of MMACHC we used DSF, a method that measures protein stability and ligand-induced changes in stability [[20,21]]. DSF uses an environmentally sensitive dye, such as Sypro orange, to monitor protein-unfolding caused by heat denaturation. As the protein unfolds, the dye, which has a higher fluorescence quantum yield in nonpolar environments than in aqueous media, binds to hydrophobic regions of the protein, causing a large increase in fluorescence [[22,23]]. Protein stability is expressed as the melting point of the protein (Tm), that is, the transition midpoint of the fluorescence curve, corresponding to the temperature at which half of the protein molecules are folded and half are unfolded. […] Even lower was the stability of MMACHC-R161Q (Tm = 37.1 ± 0.7 °C) (Fig. 2B). The difference in Tm was small but nonetheless significant (p < 0.01). A second difference between the wild-type and mutant proteins was the shape of the unfolding curves, with the unfolding of the mutant protein showing high cooperativity indicating a two-state unfolding mechanism while the unfolding of the wild-type protein stretched over a larger temperature range and comprised two phases (Fig. 2B; also Fig. 3A at 0 μM OHCbl).

MMACHC-wt = target: T4, MMACHC-wt (Homo sapiens, UniProt Q9Y4U1); test: as above; type: binding; conditions: Tm at 50 μM ligand minus Tm at 0 μM ligand
T4 construct: His-tag (N, cleaved yes); made in house; host or cells: E. coli BL21 DE3
T4 sequence (Q9Y4U1 1-282): T1 sequence (Q9Y4U1 1-282 R161Q) with Q161R
Procedure: as §2, §3

[6] = UV-visible absorption spectra of free cobalamin; type: physicochemical; conditions: for α/β-Peak: nm; for γ-Peak: wavelength
Procedure: (§4) To determine base-on or base-off binding, 5 μM of the appropriate cobalamin or cobinamde in buffer (100 mM Tris, pH 7.0), was incubated in the dark with 400 μl total of 50 μM MMACHC protein (wild-type or R161Q), prepared in the same buffer, or alone, for 5 min at room temperature. In order to retain the high amounts of protein necessary for these experiments, the His-tag (wt and R161Q) or GST-tag (wt protein) was left on. Absorption spectrum measurements were carried out using a MOS-250 spectrometer and recorded using Bio-Kine 32 v4.20 software.
as §1

His-MMACHC-wt = target: T5, His-MMACHC-wt (Homo sapiens, UniProt Q9Y4U1); test: UV-visible absorption spectra, base-on/base-off binding; conditions: 5 μM cobalamin, 50 μM protein, pH 7.0
T5 construct: made in house; host or cells: E. coli BL21 DE3
T5 sequence (Q9Y4U1 1-282): T1 sequence (Q9Y4U1 1-282 R161Q) with Q161R
Procedure: as §4, §1

GST-MMACHC-wt [7] = target: T3, GST-MMACHC-wt; test: as above; conditions: 5 μM cobalamin, 50 μM protein, pH 7.0
Procedure: as §4, §1

MMACHC-G147D = test system: MMACHC-G147D; parameters: method as in PMID 19700356; conditions: recombinant protein, in words; cited from earlier work

Base-on/off (His-MMACHC-R161Q [1]): Off | α/β-Peak (His-MMACHC-R161Q [1]; nm): 531 nm | γ-Peak (His-MMACHC-R161Q [1]; wavelength): 359 | α/β-Peak (His-MMACHC-R161Q [2]; nm): 540 nm | γ-Peak (His-MMACHC-R161Q [2]; wavelength): 359 | ΔTm max (MMACHC-R161Q [5]): 1 °C and 1.1 ± 0.6 °C | ΔTm max (MMACHC-wt): 3.4 ± 0.6 °C | α/β-Peak ([6]; base-off): 529 nm | γ-Peak ([6]; base-off): 355 nm | α/β-Peak ([6]; base-on): 551 nm | γ-Peak ([6]; base-on): 360 nm | Base-on/off (His-MMACHC-wt): Off | α/β-Peak (His-MMACHC-wt; nm): 531 nm | γ-Peak (His-MMACHC-wt; wavelength): 358 | Base-on/off (GST-MMACHC-wt [7]): base-off and Off | α/β-Peak (GST-MMACHC-wt [7]; nm): 530 nm | γ-Peak (GST-MMACHC-wt [7]; wavelength): 357
Substance: Cyanocobalamin [CNCbl]
Base-on/off (His-MMACHC-R161Q [2]): shifted incompletely towards full base-off binding; also recorded: On/Off | Kd (MMACHC-R161Q [3]; published Kd, unit printed in b35 only): 20 µM | cobalamin binding (MMACHC-R161Q [3]; recombinant protein, in words): poorly; also recorded: impaired | binding conformation (base-on/off) (GST-MMACHC-wt [4]): base-off | cobalamin binding (MMACHC-G147D): unable to bind
